According to patent US9353146B2, “Acylation derivatives of paridis saponins I, preparation method therefor and application thereof” (HANGZHOU BENSHENG PHARMACEUTICAL CO., LTD., priority 2012, dated 2016):
In brackets after ≈: the same amount, converted by molar mass.

Columns and labels:
[1] = tested on: RKO (human colon adenocarcinoma cell); experiment: Anti-human solid tumor cell growth inhibition, MTT method, 72 h; assay type: cell-based; conditions: for IC90: Homo sapiens
From the text: (§1) Human solid tumor cell lines: A549 (human lung cancer) and SK-OV-3 (ovarian cancer cell), all of which are purchased from China Center For Type Culture Collection; RKO (human colon adenocarcinoma cell) and MG-63 (osteosarcoma), all of which are purchased from Fuxiang Bio-tech Co. Ltd., Shanghai, China; Hela (human cervical cancer cell), donated by Cancer Research Institute of Zhejiang University, China.
(§2) 4000 well-growing human solid tumor cells were obtained and inoculated into wells of a 96-well cell culture plate. The culture medium used was DMEM High Glucose cell culture medium containing 10% fetal bovine serum. The plate is placed in a carbon dioxide cell incubator (5% CO2) at 37° C. and incubated for 24 hours. After adding the Polyphyllin I derivatives with 5′-acylated arabinofuranosyl group of different concentrations and mixing uniformly, the plate was continued to be placed in a carbon dioxide cell incubator (5% CO2) at 37° C. and incubated for 72 hours. Then the viable cell concentration was determined by the MTT method and the cell viability (%) after drug treatment was calculated. In this experiment, the cell viability of control group (not treated with any compound) is set as 100%.

[2] = tested on: K562/adr (drug-resistant, chronic myeloid leukemia, CML); experiment: Anti-leukemia cell growth inhibition, MTT method, 72 h; assay type: cell-based, human; conditions: for IC50 / IC90: Homo sapiens, K562/Adr
From the text: (§3) Leukemia cell lines: leukemia cell lines: K562/adr (drug-resistant, chronic myeloid leukemia, CML), NB4 (acute promyelocytic leukemia, AML), and Kasumi-1 (acute myeloid leukemia M2 type, AML-M2), all of which were donated by Cancer Research Institute of Zhejiang University, China.
(§4) 6000 well-growing leukemia cells were obtained and inoculated into wells of a 96-well cell culture plate. The culture medium used was the 1640 cell culture medium containing 10% fetal bovine serum. After adding the Polyphyllin I derivatives with 5′-acylated arabinofuranosyl of different concentrations and mixing uniformly, the plate was placed in a carbon dioxide cell incubator (5% CO2) at 37° C. and incubated for 72 hours. Then the viable cell concentration was determined by the MTT method. In this experiment, the cell viability in control group (not treated with any compound) is set as 100%. On such basis, the cell viability (%) after treatment of the compound and the 50% inhibiting concentration for the leukemia cell growth at 72 hours (IC50 value and IC90 value of 72 hours) were calculated.

[3] = tested on: NB4 (acute promyelocytic leukemia, AML); experiment: as above; assay type: cell-based, human; conditions: for IC50 / IC90: Homo sapiens
From the text: as §3, §4

[4] = tested on: A549 (human lung cancer); experiment: Anti-human solid tumor cell growth inhibition, MTT method, 72 h; assay type: cell-based; conditions: for IC50 / IC90: Homo sapiens, A549
From the text: as §1, §2

[5] = tested on: Hela (human cervical cancer cell); experiment: as above; assay type: cell-based; conditions: for IC50 / IC90: Homo sapiens, HeLa
From the text: as §1, §2

[6] = tested on: SK-OV-3 (ovarian cancer cell); experiment: as above; assay type: cell-based
From the text: as §1, §2

[7] = tested on: MG-63 (osteosarcoma); experiment: as above; assay type: cell-based; conditions: for IC50 / IC90: Homo sapiens, MG-63
From the text: as §1, §2

[8] = tested on: Kasumi-1 (acute myeloid leukemia M2 type, AML-M2); experiment: Anti-leukemia cell growth inhibition, MTT method, 72 h; assay type: cell-based, human; conditions: for IC50: Homo sapiens, Kasumi 1
From the text: as §3, §4

[9] = tested on: nasopharyngeal carcinoma CNE-2 cell line; conditions: DDP as positive control; HUA Yonghong et al. 2011; cited from earlier work
[10] = tested on: nasopharyngeal carcinoma CNE-2 cell line; conditions: HUA Yonghong et al. 2011; cited from earlier work
[11] = tested on: human hepatocellular carcinoma SMMC-7721 cell line; conditions: in vitro; XIAO Meifang et al. 2011; cited from earlier work

Compound | IC90 [1] [mg/L] | IC50 [2] [mg/L] | IC50 [3] [mg/L] | IC90 [3] [mg/L] | IC50 [4] [mg/L] | IC90 [4] [mg/L] | IC50 [5] [mg/L] | IC90 [5] [mg/L] | IC90 [2] [mg/L] | further results
COc1ccc(C(=O)OC[C@@H]2OC(O[C@H]3[C@H](O)[C@@H](OC4O[C@@H](C)[C@H](O)[C@@H](O)[C@H]4O)[C@H](O[C@H]4CC[C@@]5(C)C(=CCC6C7CC8O[C@]9(CC[C@@H](C)CO9)[C@@H](C)C8[C@@]7(C)CCC65)C4)O[C@@H]3CO)[C@H](O)[C@H]2O)cc1 (stereo partly drawn) [BS-PP-03] | 4.5 (≈ 4.55 µM) | 0.69 (≈ 0.698 µM) | 1.13 (≈ 1.14 µM) | 1.96 (≈ 1.98 µM) |  |  |  |  |  | 
C[C@@H]1CC[C@@]2(OC1)OC1CC3C4CC=C5C[C@@H](O[C@@H]6O[C@H](CO)[C@@H](OC7O[C@@H](COC(=O)c8ccncc8)[C@H](O)[C@H]7O)[C@H](O)[C@H]6OC6O[C@@H](C)[C@H](O)[C@@H](O)[C@H]6O)CC[C@]5(C)C4CC[C@]3(C)C1[C@@H]2C (stereo partly drawn) [BS-PP-04] |  | 0.38 (≈ 0.396 µM) | 0.91 (≈ 0.948 µM) | 3.85 (≈ 4.01 µM) | 1 (≈ 1.04 µM) | 14.5 (≈ 15.1 µM) | 0.48 (≈ 0.5 µM) | 3.23 (≈ 3.36 µM) | 2.33 (≈ 2.43 µM) | 
C[C@@H]1CC[C@@]2(OC1)OC1CC3C4CC=C5C[C@@H](O[C@@H]6O[C@H](CO)[C@@H](OC7O[C@@H](COC(=O)c8ccc(C(F)(F)F)cc8)[C@H](O)[C@H]7O)[C@H](O)[C@H]6OC6O[C@@H](C)[C@H](O)[C@@H](O)[C@H]6O)CC[C@]5(C)C4CC[C@]3(C)C1[C@@H]2C (stereo partly drawn) [BS-PP-05] | 6.82 (≈ 6.64 µM) |  |  |  | 1.8 (≈ 1.75 µM) | 12 (≈ 11.7 µM) |  |  |  | 
C[C@@H]1CC[C@@]2(OC1)OC1CC3C4CC=C5C[C@@H](O[C@@H]6O[C@H](CO)[C@@H](OC7O[C@@H](COC(=O)c8ccc(F)cc8)[C@H](O)[C@H]7O)[C@H](O)[C@H]6OC6O[C@@H](C)[C@H](O)[C@@H](O)[C@H]6O)CC[C@]5(C)C4CC[C@]3(C)C1[C@@H]2C (stereo partly drawn) [BS-PP-06] | 5.13 (≈ 5.25 µM) | 0.73 (≈ 0.747 µM) | 0.79 (≈ 0.808 µM) | 4.09 (≈ 4.19 µM) |  |  |  |  | 2.66 (≈ 2.72 µM) | 
C[C@@H]1CC[C@@]2(OC1)OC1CC3C4CC=C5C[C@@H](O[C@@H]6O[C@H](CO)[C@@H](OC7O[C@@H](COC(=O)c8ccc(F)cc8F)[C@H](O)[C@H]7O)[C@H](O)[C@H]6OC6O[C@@H](C)[C@H](O)[C@@H](O)[C@H]6O)CC[C@]5(C)C4CC[C@]3(C)C1[C@@H]2C (stereo partly drawn) [BS-PP-08] | 4.93 (≈ 4.95 µM) | 0.49 (≈ 0.492 µM) | 0.85 (≈ 0.854 µM) | 1.9 (≈ 1.91 µM) | 1.19 (≈ 1.2 µM) | 14.1 (≈ 14.1 µM) | 0.61 (≈ 0.613 µM) | 3.89 (≈ 3.91 µM) | 2.5 (≈ 2.51 µM) | 
C[C@@H]1CC[C@@]2(OC1)OC1CC3C4CC=C5C[C@@H](O[C@@H]6O[C@H](CO)[C@@H](OC7O[C@@H](COC(=O)c8cccs8)[C@H](O)[C@H]7O)[C@H](O)[C@H]6OC6O[C@@H](C)[C@H](O)[C@@H](O)[C@H]6O)CC[C@]5(C)C4CC[C@]3(C)C1[C@@H]2C (stereo partly drawn) [BS-PP-09] | 5.25 (≈ 5.44 µM) |  | 1.11 (≈ 1.15 µM) | 3.92 (≈ 4.06 µM) | 1.6 (≈ 1.66 µM) | 13 (≈ 13.5 µM) | 0.55 (≈ 0.57 µM) | 2 (≈ 2.07 µM) |  | 
C[C@@H]1CC[C@@]2(OC1)OC1CC3C4CC=C5C[C@@H](O[C@@H]6O[C@H](CO)[C@@H](OC7O[C@@H](COC(=O)c8ccco8)[C@H](O)[C@H]7O)[C@H](O)[C@H]6OC6O[C@@H](C)[C@H](O)[C@@H](O)[C@H]6O)CC[C@]5(C)C4CC[C@]3(C)C1[C@@H]2C (stereo partly drawn) [BS-PP-10] | 5.46 (≈ 5.75 µM) | 0.45 (≈ 0.474 µM) | 0.83 (≈ 0.875 µM) | 2.82 (≈ 2.97 µM) | 0.86 (≈ 0.906 µM) | 10.2 (≈ 10.8 µM) | 0.45 (≈ 0.474 µM) | 2.01 (≈ 2.12 µM) | 2.23 (≈ 2.35 µM) | IC50 ([6]; Homo sapiens, SK-OV-3): 0.65 mg/L (≈ 0.685 µM); IC90 ([6]; Homo sapiens, SK-OV-3): 0.97 mg/L (≈ 1.02 µM); IC50 [7]: 0.33 mg/L (≈ 0.348 µM); IC90 [7]: 0.85 mg/L (≈ 0.896 µM); IC50 [8]: 0.78 mg/L (≈ 0.822 µM)
CC(=O)OC[C@@H]1OC(O[C@H]2[C@H](O)[C@@H](OC3O[C@@H](C)[C@H](O)[C@@H](O)[C@H]3O)[C@H](O[C@H]3CC[C@@]4(C)C(=CCC5C6CC7O[C@]8(CC[C@@H](C)CO8)[C@@H](C)C7[C@@]6(C)CCC54)C3)O[C@@H]2CO)[C@H](O)[C@H]1O (stereo partly drawn) [BS-PP-11] |  | 0.42 (≈ 0.468 µM) | 0.94 (≈ 1.05 µM) | 2.48 (≈ 2.76 µM) | 0.83 (≈ 0.925 µM) | 10.2 (≈ 11.4 µM) | 0.62 (≈ 0.691 µM) | 2.57 (≈ 2.86 µM) | 2.32 (≈ 2.59 µM) | IC50 [7]: 0.33 mg/L (≈ 0.368 µM); IC90 [7]: 0.76 mg/L (≈ 0.847 µM)
C[C@@H]1CC[C@@]2(OC1)OC1CC3C4CC=C5C[C@@H](O[C@@H]6O[C@H](CO)[C@@H](OC7O[C@@H](COC(=O)C8CC8)[C@H](O)[C@H]7O)[C@H](O)[C@H]6OC6O[C@@H](C)[C@H](O)[C@@H](O)[C@H]6O)CC[C@]5(C)C4CC[C@]3(C)C1[C@@H]2C (stereo partly drawn) [BS-PP-12] | 6.08 (≈ 6.59 µM) | 0.42 (≈ 0.455 µM) | 1.22 (≈ 1.32 µM) | 3.96 (≈ 4.29 µM) | 0.86 (≈ 0.932 µM) | 7.38 (≈ 7.99 µM) | 0.5 (≈ 0.542 µM) | 3.19 (≈ 3.46 µM) | 2.14 (≈ 2.32 µM) | IC50 [8]: 0.86 mg/L (≈ 0.932 µM)
C[C@@H]1CC[C@@]2(OC1)OC1CC3C4CC=C5C[C@@H](O[C@@H]6O[C@H](CO)[C@@H](OC7O[C@@H](COC(=O)c8ccc(F)cc8Cl)[C@H](O)[C@H]7O)[C@H](O)[C@H]6OC6O[C@@H](C)[C@H](O)[C@@H](O)[C@H]6O)CC[C@]5(C)C4CC[C@]3(C)C1[C@@H]2C (stereo partly drawn) [BS-PP-15] | 5.13 (≈ 5.07 µM) | 0.76 (≈ 0.751 µM) | 1.19 (≈ 1.18 µM) | 3.4 (≈ 3.36 µM) | 1.8 (≈ 1.78 µM) | 9.9 (≈ 9.79 µM) | 0.68 (≈ 0.672 µM) | 3.51 (≈ 3.47 µM) | 2 (≈ 1.98 µM) | 
C[C@@H]1CC[C@@]2(OC1)O[C@H]1C[C@H]3[C@@H]4CC=C5C[C@@H](O[C@@H]6O[C@H](CO)[C@@H](O[C@@H]7O[C@@H](CO)[C@H](O)[C@H]7O)[C@H](O)[C@H]6O[C@@H]6O[C@@H](C)[C@H](O)[C@@H](O)[C@H]6O)CC[C@]5(C)[C@H]4CC[C@]3(C)[C@H]1[C@@H]2C [PP, 4-O-arabinofuranosyl-2-O-rhamnopyranosyl-β-D-glucopyranosyldioscin, reference compound] |  |  |  |  |  |  |  |  |  | radiosensitizing effects on CNE-2 cell line [9]: concentration-dependent radiosensitizing effects; A549 IC50 [4]: 1.86 mg/L; A549 IC90 [4]: 14.63 mg/L; RKO IC90 [1]: 8.48 mg/L; SK-OV-3 IC50 [6]: 0.70 mg/L; SK-OV-3 IC90 [6]: 1.70 mg/L; MG-63 IC50 [7]: 0.37 mg/L; MG-63 IC90 [7]: 0.97 mg/L; Hela IC50 [5]: 0.77 mg/L; Hela IC90 [5]: 4.86 mg/L; K562/adr IC50 [2]: 0.87 mg/L; K562/adr IC90 [2]: 2.98 mg/L; Kasumi-1 IC50 [8]: 0.92 mg/L; NB4 IC50 [3]: 1.84 mg/L; NB4 IC90 [3]: 6.75 mg/L; effects on the proliferation of CNE-2 cells [10]: time- and dose-dependent inhibitory effects; effect on proliferation of SMMC-7721 cells [11]: inhibit the proliferation of hepatocellular carcinoma SMMC-7721 cells in a time- and concentration-dependent manner
